We go through 8 compounds from ChEMBL document CHEMBL3991601, “The target landscape of clinical kinase drugs” (Science, 2017).

By Kd is commonly meant the free concentration of one partner at which half of the binding sites on the other are occupied at equilibrium, for simple one-to-one binding.

The source made the active and inactive calls. Cut-off read from the data, not from the text of the source, for most assays here: actives have a measured Kd and inactives only a lower limit. Where only a bound is given, the exact number is not on record here.

For experiment [1], the target named is T1, Tyrosine--tRNA ligase, cytoplasmic (Homo sapiens, UniProt P54577).
T1 sequence (P54577 whole entry): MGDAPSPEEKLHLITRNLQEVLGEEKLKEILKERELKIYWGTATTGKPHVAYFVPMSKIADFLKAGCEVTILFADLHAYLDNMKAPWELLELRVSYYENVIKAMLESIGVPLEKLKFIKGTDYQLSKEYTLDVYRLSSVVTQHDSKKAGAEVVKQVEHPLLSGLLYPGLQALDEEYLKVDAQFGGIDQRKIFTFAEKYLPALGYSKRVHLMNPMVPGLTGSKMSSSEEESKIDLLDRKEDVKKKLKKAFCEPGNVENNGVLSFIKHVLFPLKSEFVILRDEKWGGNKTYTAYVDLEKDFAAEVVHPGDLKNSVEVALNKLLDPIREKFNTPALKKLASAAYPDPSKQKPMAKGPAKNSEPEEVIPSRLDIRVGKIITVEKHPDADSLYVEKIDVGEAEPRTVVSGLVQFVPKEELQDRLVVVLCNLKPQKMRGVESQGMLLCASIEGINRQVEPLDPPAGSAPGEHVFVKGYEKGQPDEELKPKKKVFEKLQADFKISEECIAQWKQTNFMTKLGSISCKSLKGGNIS

Experiment [2] has as its target T2, Glycogen phosphorylase, brain form (Homo sapiens, UniProt P11216).
T2 sequence (P11216 whole entry): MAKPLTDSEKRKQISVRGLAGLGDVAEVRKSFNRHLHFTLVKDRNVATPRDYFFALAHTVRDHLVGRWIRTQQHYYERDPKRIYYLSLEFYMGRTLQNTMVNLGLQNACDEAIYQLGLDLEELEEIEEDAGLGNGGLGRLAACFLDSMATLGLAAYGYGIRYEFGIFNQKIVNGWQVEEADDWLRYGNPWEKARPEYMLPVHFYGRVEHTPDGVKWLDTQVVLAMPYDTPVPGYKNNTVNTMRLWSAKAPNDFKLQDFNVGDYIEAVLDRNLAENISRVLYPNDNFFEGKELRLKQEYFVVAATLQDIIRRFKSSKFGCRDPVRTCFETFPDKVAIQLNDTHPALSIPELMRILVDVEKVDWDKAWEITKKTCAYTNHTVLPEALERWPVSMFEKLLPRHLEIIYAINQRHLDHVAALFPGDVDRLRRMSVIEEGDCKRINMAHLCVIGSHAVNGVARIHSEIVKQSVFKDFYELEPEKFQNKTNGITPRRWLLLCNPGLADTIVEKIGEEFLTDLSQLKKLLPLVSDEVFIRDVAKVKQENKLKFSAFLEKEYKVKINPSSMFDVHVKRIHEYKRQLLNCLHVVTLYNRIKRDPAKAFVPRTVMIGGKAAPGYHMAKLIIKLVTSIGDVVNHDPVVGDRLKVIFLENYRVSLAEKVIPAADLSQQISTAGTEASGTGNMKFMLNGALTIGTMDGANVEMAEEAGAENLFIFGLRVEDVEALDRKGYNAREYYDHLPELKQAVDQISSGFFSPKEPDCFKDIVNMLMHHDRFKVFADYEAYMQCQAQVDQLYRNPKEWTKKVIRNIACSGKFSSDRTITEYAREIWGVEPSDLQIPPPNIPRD

The target of experiment [3] is T3, STE20-related kinase adapter protein alpha (Homo sapiens, UniProt Q7RTN6).
T3 sequence (Q7RTN6 whole entry): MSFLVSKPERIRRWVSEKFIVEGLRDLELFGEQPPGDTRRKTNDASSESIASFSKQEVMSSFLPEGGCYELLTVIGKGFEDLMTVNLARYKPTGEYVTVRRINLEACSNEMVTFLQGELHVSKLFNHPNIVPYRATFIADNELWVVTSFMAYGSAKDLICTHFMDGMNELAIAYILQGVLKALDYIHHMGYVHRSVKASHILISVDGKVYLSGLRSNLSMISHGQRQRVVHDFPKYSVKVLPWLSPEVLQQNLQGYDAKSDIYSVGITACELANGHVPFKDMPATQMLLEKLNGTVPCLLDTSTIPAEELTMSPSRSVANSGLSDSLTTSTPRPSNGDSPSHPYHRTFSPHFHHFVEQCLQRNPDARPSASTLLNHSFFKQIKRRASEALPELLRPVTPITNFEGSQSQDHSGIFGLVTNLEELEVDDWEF

Experiment [4] concerns the target MAP/microtubule affinity-regulating kinase 3 (Homo sapiens, UniProt P27448).
The target of experiment [5] is cAMP-dependent protein kinase type II-alpha regulatory subunit (Homo sapiens, UniProt P13861).
Another experiment deals with Focal adhesion kinase 1 (Homo sapiens, UniProt Q05397).
The next experiment addresses LIM domain kinase 2 (Homo sapiens, UniProt P53671).
The target in experiment [6] is Ribosomal protein S6 kinase alpha-5 (Homo sapiens, UniProt O75582).
The target of experiment [7] is Casein kinase I isoform delta (Homo sapiens, UniProt P48730).
The target of experiment [8] is Serine/threonine-protein kinase PAK 4 (Homo sapiens, UniProt O96013).
Experiment [9] deals with T4, Acyl-CoA dehydrogenase family member 11 (Homo sapiens, UniProt Q709F0).
T4 sequence (Q709F0 whole entry): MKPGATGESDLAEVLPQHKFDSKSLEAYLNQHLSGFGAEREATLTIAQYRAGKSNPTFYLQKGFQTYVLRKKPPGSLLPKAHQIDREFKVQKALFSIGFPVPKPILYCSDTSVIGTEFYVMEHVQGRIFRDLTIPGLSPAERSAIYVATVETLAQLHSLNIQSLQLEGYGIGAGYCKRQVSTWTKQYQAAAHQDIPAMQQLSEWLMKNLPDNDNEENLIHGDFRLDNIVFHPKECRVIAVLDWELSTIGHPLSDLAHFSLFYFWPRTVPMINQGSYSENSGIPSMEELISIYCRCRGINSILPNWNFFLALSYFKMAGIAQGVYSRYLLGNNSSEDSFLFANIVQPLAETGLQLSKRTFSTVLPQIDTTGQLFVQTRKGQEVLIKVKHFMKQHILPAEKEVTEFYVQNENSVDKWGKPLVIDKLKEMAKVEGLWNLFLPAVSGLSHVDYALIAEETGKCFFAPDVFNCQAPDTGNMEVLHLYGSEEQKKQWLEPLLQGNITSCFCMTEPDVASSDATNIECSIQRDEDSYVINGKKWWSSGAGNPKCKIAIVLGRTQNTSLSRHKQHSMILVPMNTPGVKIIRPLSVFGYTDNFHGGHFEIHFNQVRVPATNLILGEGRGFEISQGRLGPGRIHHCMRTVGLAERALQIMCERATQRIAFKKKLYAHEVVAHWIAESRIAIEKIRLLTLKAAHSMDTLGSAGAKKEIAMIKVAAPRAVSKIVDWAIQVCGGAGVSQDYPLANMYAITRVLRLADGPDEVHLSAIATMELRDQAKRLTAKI
Note: in the data inactive means no Kd found up to 30 µM.

Chain of cAMP-dependent protein kinase type II-alpha regulatory subunit (P13861 whole entry): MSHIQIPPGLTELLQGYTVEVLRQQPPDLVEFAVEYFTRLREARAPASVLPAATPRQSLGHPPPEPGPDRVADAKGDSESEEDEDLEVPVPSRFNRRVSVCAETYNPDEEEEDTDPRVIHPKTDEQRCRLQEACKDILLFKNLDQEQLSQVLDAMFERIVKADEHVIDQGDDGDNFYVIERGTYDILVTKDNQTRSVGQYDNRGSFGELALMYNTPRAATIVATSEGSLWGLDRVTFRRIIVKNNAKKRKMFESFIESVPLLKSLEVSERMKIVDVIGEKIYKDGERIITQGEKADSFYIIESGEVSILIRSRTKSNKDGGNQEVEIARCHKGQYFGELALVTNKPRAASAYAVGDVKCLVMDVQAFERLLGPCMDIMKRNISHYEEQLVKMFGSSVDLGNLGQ
Chain of Ribosomal protein S6 kinase alpha-5 (O75582 whole entry, canonical isoform): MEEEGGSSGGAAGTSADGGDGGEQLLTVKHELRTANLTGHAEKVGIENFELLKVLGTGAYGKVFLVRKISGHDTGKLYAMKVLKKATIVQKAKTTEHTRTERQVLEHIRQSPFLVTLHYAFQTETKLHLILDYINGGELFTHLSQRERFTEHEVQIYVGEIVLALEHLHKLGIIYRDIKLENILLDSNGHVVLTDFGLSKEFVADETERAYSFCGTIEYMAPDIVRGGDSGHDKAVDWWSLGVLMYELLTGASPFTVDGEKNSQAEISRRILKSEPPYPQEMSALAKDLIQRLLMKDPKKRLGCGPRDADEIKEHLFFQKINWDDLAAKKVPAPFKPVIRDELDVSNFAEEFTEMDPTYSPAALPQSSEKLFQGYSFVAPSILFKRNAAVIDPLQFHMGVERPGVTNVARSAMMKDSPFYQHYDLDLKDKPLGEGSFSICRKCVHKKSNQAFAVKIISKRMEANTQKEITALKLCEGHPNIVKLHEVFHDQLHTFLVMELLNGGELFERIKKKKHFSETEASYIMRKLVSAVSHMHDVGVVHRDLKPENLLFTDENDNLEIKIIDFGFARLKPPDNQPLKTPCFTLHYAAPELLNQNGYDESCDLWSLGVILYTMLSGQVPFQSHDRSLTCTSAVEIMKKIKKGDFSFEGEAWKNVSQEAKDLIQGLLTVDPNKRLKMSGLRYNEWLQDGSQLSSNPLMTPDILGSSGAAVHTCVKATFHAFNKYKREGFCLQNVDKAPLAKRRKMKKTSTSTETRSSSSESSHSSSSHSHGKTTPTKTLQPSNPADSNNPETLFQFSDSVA
Chain of LIM domain kinase 2 (P53671 whole entry, the tested form may be a part): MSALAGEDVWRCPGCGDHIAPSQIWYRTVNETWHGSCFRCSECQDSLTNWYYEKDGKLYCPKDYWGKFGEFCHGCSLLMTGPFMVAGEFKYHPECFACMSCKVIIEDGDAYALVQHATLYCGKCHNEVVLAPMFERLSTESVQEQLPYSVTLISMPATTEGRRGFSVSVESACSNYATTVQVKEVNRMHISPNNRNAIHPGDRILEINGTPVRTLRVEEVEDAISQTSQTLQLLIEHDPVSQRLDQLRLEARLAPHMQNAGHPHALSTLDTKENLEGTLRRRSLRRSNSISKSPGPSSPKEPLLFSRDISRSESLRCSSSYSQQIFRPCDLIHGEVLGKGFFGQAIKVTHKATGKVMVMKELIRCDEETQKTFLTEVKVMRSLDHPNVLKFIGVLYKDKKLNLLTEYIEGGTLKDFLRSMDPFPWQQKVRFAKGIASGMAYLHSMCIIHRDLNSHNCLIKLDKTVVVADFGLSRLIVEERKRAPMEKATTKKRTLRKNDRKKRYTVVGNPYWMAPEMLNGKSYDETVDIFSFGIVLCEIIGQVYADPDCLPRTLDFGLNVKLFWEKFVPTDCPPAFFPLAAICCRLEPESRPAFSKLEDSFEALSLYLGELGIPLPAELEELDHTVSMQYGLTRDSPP
Chain of Focal adhesion kinase 1 (Q05397 whole entry, the tested form may be a part): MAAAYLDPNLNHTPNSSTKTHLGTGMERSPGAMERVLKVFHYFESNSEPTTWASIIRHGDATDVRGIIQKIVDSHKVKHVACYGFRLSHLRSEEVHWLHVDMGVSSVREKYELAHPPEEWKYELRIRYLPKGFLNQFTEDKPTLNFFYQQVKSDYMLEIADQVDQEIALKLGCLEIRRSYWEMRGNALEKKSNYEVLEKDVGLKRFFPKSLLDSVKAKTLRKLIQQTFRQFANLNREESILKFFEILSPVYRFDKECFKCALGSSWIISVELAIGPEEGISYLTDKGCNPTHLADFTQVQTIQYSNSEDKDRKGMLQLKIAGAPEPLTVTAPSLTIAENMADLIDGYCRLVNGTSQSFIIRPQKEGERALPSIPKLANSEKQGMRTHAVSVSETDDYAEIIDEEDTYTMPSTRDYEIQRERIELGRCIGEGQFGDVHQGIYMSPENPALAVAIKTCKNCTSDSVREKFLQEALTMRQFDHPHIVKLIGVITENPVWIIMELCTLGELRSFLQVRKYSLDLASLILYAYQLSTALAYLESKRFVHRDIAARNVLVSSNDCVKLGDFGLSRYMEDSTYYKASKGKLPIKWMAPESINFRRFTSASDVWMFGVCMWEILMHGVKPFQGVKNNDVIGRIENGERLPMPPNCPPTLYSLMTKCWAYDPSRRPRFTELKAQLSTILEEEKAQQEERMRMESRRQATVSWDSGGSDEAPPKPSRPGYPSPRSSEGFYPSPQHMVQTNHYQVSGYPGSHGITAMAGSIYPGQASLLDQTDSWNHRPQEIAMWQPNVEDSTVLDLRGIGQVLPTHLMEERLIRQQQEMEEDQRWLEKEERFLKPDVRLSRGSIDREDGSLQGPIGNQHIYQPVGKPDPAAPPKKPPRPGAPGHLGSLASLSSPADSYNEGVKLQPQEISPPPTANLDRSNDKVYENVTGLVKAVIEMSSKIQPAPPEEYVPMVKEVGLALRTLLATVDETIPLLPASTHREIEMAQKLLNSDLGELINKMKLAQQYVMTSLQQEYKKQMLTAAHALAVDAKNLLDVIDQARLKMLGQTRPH
Chain of MAP/microtubule affinity-regulating kinase 3 (P27448 whole entry): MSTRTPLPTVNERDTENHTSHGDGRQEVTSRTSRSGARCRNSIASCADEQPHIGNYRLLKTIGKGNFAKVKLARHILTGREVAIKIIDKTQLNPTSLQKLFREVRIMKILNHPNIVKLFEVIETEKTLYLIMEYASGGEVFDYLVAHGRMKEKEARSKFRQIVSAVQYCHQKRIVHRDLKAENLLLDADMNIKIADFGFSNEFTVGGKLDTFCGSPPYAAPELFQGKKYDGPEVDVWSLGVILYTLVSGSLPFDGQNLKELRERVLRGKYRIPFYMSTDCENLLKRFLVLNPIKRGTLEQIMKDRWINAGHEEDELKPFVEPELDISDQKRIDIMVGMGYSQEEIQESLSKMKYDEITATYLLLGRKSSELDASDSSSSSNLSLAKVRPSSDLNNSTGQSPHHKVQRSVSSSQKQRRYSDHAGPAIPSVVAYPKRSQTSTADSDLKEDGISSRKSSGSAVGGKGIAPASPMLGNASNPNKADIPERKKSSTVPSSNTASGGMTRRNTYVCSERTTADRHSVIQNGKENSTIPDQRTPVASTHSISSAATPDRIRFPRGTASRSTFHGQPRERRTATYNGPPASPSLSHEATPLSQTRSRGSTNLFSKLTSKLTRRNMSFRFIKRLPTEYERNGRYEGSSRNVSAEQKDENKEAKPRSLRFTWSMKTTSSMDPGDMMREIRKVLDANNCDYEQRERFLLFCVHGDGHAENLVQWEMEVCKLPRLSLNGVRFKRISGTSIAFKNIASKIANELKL
Chain of Casein kinase I isoform delta (P48730 whole entry, canonical isoform): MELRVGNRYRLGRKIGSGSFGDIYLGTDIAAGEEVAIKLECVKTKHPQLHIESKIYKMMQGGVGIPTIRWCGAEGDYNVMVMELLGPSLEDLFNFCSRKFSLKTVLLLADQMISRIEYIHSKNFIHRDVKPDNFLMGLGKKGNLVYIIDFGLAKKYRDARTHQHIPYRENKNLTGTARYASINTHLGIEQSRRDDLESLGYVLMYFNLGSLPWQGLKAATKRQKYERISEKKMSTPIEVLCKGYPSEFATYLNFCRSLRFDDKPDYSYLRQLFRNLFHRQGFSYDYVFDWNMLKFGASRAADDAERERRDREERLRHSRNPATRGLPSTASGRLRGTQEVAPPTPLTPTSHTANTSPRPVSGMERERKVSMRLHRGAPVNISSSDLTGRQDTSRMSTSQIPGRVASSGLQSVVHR
Chain of Serine/threonine-protein kinase PAK 4 (O96013 whole entry): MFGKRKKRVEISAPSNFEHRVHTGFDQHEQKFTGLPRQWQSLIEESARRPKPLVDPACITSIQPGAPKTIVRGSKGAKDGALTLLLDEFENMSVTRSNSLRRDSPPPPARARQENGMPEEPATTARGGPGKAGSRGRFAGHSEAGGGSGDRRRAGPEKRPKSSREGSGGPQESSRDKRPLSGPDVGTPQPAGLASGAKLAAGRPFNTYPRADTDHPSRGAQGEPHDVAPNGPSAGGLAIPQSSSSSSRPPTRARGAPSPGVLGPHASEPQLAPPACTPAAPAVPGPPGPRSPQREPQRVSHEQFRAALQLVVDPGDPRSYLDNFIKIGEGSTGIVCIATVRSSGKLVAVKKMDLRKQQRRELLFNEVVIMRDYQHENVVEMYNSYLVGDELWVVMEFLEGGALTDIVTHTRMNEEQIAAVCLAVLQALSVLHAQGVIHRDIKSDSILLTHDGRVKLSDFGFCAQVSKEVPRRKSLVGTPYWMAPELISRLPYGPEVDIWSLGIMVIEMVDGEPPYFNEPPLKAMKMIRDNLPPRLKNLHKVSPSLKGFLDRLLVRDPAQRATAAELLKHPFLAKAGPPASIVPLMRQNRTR

For the compound `CNC(=O)c1cc(Oc2ccc(NC(=O)Nc3ccc(Cl)c(C(F)(F)F)c3)c(F)c2)ccn1` [REGORAFENIB], the Kd (in [1]; in experiment [2]; in experiment [3]; in experiment [4]; in experiment [5]; at Focal adhesion kinase 1) was > 30 µM (inactive) each time. Further, the Kd (at LIM domain kinase 2; in [6]; in experiment [7]; in experiment [8]; in [9]) was > 30 µM (inactive) each time.
On to `CCN1CCN(Cc2ccc(-c3cc4c(N[C@H](C)c5ccccc5)ncnc4[nH]3)cc2)CC1` [AEE-788], for which the Kd (in [1]; in experiment [2]; in [3]; in [4]; in experiment [5]; at Focal adhesion kinase 1) was > 30 µM (inactive) throughout. Besides, the Kd on LIM domain kinase 2 was 21.8 µM (active); in experiment [6], > 30 µM (inactive); in experiment [7], > 30 µM (inactive); in [8] it was > 30 µM (inactive); in experiment [9], > 30 µM (inactive).
Regarding `Cc1ccc(NC(=O)c2ccc(CN3CC[C@H](N(C)C)C3)c(C(F)(F)F)c2)cc1Nc1nccc(-c2cncnc2)n1` [BAFETINIB], the Kd (in experiment [1]; in experiment [2]; in [3]; in experiment [4]; in experiment [5]; at Focal adhesion kinase 1) was > 30 µM (inactive) throughout. Further, the Kd (at LIM domain kinase 2; in experiment [6]; in [7]; in [8]; in experiment [9]) was > 30 µM (inactive) throughout.
Regarding `COCCNCc1ccc(-c2cc3nccc(Oc4ccc(NC(=S)NC(=O)Cc5ccc(F)cc5)cc4F)c3s2)nc1` [GLESATINIB], the Kd (in experiment [1]; in experiment [2]; in experiment [3]; in experiment [4]; in [5]; at Focal adhesion kinase 1) was > 30 µM (inactive) in each case. The Kd (on LIM domain kinase 2; in experiment [6]; in experiment [7]; in [8]; in experiment [9]) was > 30 µM (inactive) throughout.
Turning to `Cn1cc(-c2ccc3nnc(C(F)(F)c4ccc5ncccc5c4)n3n2)cn1` [JNJ-38877605], the Kd (in experiment [1]; in experiment [2]; in experiment [3]; in [4]; in [5]; at Focal adhesion kinase 1) was > 30 µM (inactive) each time. In addition, the Kd (at LIM domain kinase 2; in [6]; in experiment [7]; in experiment [8]; in experiment [9]) was > 30 µM (inactive) each time.
For the compound `CC[C@H](Nc1ncnc2[nH]cnc12)c1nc2cccc(F)c2c(=O)n1-c1ccccc1` [IDELALISIB], the Kd (in [1]; in [2]; in experiment [3]; in [4]; in experiment [5]; on Focal adhesion kinase 1) was > 30 µM (inactive) throughout. Moreover, the Kd (on LIM domain kinase 2; in experiment [6]; in experiment [7]; in experiment [8]; in [9]) was > 30 µM (inactive) throughout.
Regarding `O=C(c1ccc(F)c(F)c1Nc1ccc(I)cc1F)N1CC(O)([C@@H]2CCCCN2)C1` [COBIMETINIB], the Kd (in experiment [1]; in [2]; in [3]; in experiment [4]; in experiment [5]; at Focal adhesion kinase 1) was > 30 µM (inactive) each time. The Kd (on LIM domain kinase 2; in experiment [6]; in experiment [7]; in experiment [8]; in experiment [9]) was > 30 µM (inactive) in each case.
On to `Cc1cc(-c2cc(O)ccc2Cl)cc2nnc(Nc3ccc(OCCN4CCCC4)cc3)nc12`, for which the Kd (in [1]; in experiment [2]; in experiment [3]; in experiment [4]; in experiment [5]; on Focal adhesion kinase 1) was > 30 µM (inactive) each time. The Kd (on LIM domain kinase 2; in experiment [6]; in experiment [7]; in experiment [8]; in experiment [9]) was > 30 µM (inactive) throughout.
